Series [1] has as its system Staphylococcus aureus (ATCC 25923). The series can be described thus: Intrinsic antimicrobial activity (MIC) against S. aureus. The class given is cell-based. The note with it: ATCC25923, S. aureus ATCC 25923, mean (n = 3), read-out: MIC S. a. Here is the method: (§1) The susceptibility of bacterial strains Staphylococcus aureus (ATCC 25923), Escherichia coli (ATCC 25922) and Pseudomonas aeruginosa (ATCC 27853) to antibiotics and compounds was determined using previously reported protocols. Additional antimicrobial evaluation against MRSA (ATCC 43300), Klebsiella pneumoniae (ATCC 700603), Acinetobacter baumannii (ATCC 19606), Candida albicans (ATCC 90028) and Cryptococcus neoformans (ATCC 208821) was undertaken at the Community for Open Antimicrobial Drug Discovery at The University of Queensland (Australia) according to their standard protocols, as reported previously.

Series [2] relates to MRSA (ATCC 43300). The series can be described thus: Intrinsic antimicrobial activity (MIC) against MRSA. The class given is cell-based. The note with it: Staphylococcus aureus, MRSA ATCC 43300; mean (n = 2); read-out: MIC MRSA. The procedure: as §1
Series [3] deals with Pseudomonas aeruginosa (ATCC 27853). The series can be described thus: Intrinsic antimicrobial activity (MIC) against P. aeruginosa. The class given is cell-based. The note with it: ATCC27853, P. aeruginosa ATCC 27853, mean (n = 3), read-out: MIC P. a. Here is the method: as §1
Series [4] concerns Escherichia coli (ATCC 25922). The series can be described thus: Intrinsic antimicrobial activity (MIC) against E. coli. The class given is cell-based. The note with it: ATCC25922, E. coli ATCC 25922, mean (n = 3), read-out: MIC E. c. Here is the method: as §1
Series [5] concerns Klebsiella pneumoniae (ATCC 700603). The experiment in a line: Intrinsic antimicrobial activity (MIC) against K. pneumoniae. The settings on record: ATCC700603, K. pneumoniae ATCC 700603, mean (n = 2), read-out: MIC K. p. The class given is cell-based. The procedure:
as §1

Series [6] relates to Acinetobacter baumannii (ATCC 19606). The experiment in a line: Intrinsic antimicrobial activity (MIC) against A. baumannii. The settings on record: ATCC19606, A. baumannii ATCC 19606, mean (n = 2), read-out: MIC A. b. The class given is cell-based. Here is the method: as §1
Series [7] has as its system Candida albicans (ATCC 90028). The experiment in a line: Intrinsic antifungal activity (MIC) against C. albicans. The class given is cell-based. The settings on record: ATCC90028, C. albicans ATCC 90028, mean (n = 2), read-out: MIC C. a. The procedure:
as §1

Series [8] concerns Cryptococcus neoformans (ATCC 208821). The series can be described thus: Intrinsic antifungal activity (MIC) against C. neoformans. It counts as cell-based. The note with it: ATCC208821, C. neoformans ATCC 208821, mean (n = 2), read-out: MIC C. n. The procedure:
as §1

Series [9] is described as follows: Cytotoxicity assay. It counts as cell-based. The note with it: human; HEK293 cells; mean (n = 2); read-out: Cytotoxicity: concentration of compound at 50% cytotoxicity (IC50). The procedure: Cytotoxicity assays were conducted using the protocols previously reported.
The subject of series [10] is human red blood cells. The experiment in a line: Hemolytic assay. The class given is cell-based. The note with it: mean (n = 2). Here is the method: Hemolysis assays were conducted using the protocols previously reported.
The test system of series [11] is P. aeruginosa ATCC 27853. The experiment in a line: Enhancement of doxycycline action against P. aeruginosa. It counts as cell-based, Pseudomonas aeruginosa. The settings on record: doxycycline at 4.5 µM. The procedure:
(§2) Antibiotic enhancer concentrations were determined using previously reported protocols.

Series [12] relates to E. coli ATCC 25922. The series can be described thus: Enhancement of erythromycin action against E. coli. The class given is cell-based, Escherichia coli. The settings on record: erythromycin at 10.9 µM. The procedure:
as §2

Molecules are shown by their SMILES.

Regarding `Cc1ccc2[nH]cc(CC(=O)NCCCNCCCCCCNCCCNC(=O)Cc3c[nH]c4ccc(C)cc34)c2c1.O=C(O)C(F)(F)F.O=C(O)C(F)(F)F` [Compound 17b, N^1,N^6-Bis(3-(2-(5-methyl-1H-indol-3-yl)acetamido)propyl)hexane-1,6-diaminium 2,2,2-trifluoroacetate], the MIC in series [1] is 31.2 µM; in [2], ≤ 0.31 µM; in series [3] it was > 250 µM; in [4], 250 µM; in [5] it was > 40 µM; in series [6], > 40 µM. Besides, the MIC in [7] is 40 µM; in [8], ≤ 0.31 µM. Besides, the IC50 in series [9] was > 40 µM. In series [10], the “Hemolysis: concentration of compound at 10% hemolytic activity (HC10)” value (from here on “Hemolysis … at 10% hemolytic activity (HC10)”) came to 23.1 µM. The “Dox/P. a fold change (ratio between intrinsic MIC of the test compound and combination MIC)” value in series [11] is > 8 fold. For the same compound, in series [11], the “Dox/P. a: concentration required to restore doxycycline activity (combination MIC)” value (“Dox/P. a: concentration required” for short) is 31.2 µM. For the same compound, the “Eryth/E. c: concentration required to restore erythromycin activity (combination MIC)” value (from here on “Eryth/E. c: concentration required”) in series [12] amounted to 31.2 µM.
In the case of `O=C(Cc1c[nH]c2ccccc12)NCCCNCCCCCCCCCCCCNCCCNC(=O)Cc1c[nH]c2ccccc12.O=C(O)C(F)(F)F.O=C(O)C(F)(F)F` [Compound 14f, N^1,N^12-Bis(3-(2-(1H-indol-3-yl)acetamido)propyl)dodecane-1,12-diaminium 2,2,2-trifluoroacetate], the MIC was 3.65 µM in series [1]; ≤ 0.29 µM in series [2]; 58.3 µM in [3]; 29.2 µM in series [4]; > 37 µM in [5]; > 37 µM in series [6]. The MIC in [7] and in series [8] was ≤ 0.29 µM throughout. Further, in series [9], the IC50 is > 37 µM. Besides, in series [10], the “Hemolysis … at 10% hemolytic activity (HC10)” value is given as ≤0.29 µM. The “Dox/P. a fold change (ratio between intrinsic MIC of the test compound and combination MIC)” value in series [11] was found to be 4 fold. For the same compound, the “Dox/P. a: concentration required” value in series [11] was 14.6 µM. Further, the “Eryth/E. c: concentration required” value in [12] was found to be 14.6 µM.
As for `COc1cccc2c(CC(=O)NCCCNCCCCCCCNCCCNC(=O)Cc3c[nH]c4c(OC)cccc34)c[nH]c12.O=C(O)C(F)(F)F.O=C(O)C(F)(F)F` [Compound 19c, N^1,N^7-Bis(3-(2-(7-methoxy-1H-indol-3-yl)acetamido)propyl)heptane-1,7-diaminium 2,2,2-trifluoroacetate], the MIC in [1] was 29.5 µM; in series [2], 37.8 µM; in series [3], > 236 µM; in series [4], 236 µM; in [5], > 38 µM; in [6], > 38 µM. The MIC in series [7] is > 38 µM; in [8], ≤ 0.3 µM. Further, the IC50 in series [9] was > 38 µM. For the same compound, the “Hemolysis … at 10% hemolytic activity (HC10)” value in series [10] was >38 µM. Moreover, the “Dox/P. a fold change (ratio between intrinsic MIC of the test compound and combination MIC)” value in series [11] is listed as > 2 fold. Further, in series [11], the “Dox/P. a: concentration required” value stood at 118 µM. The “Eryth/E. c: concentration required” value in [12] is reported as 236 µM.
As to `O=C(Cc1c[nH]c2ccc(Br)cc12)NCCCNCCCCCCCCCCCCNCCCNC(=O)Cc1c[nH]c2ccc(Br)cc12.O=C(O)C(F)(F)F.O=C(O)C(F)(F)F` [Compound 15f, N^1,N^12-Bis(3-(2-(5-bromo-1H-indol-3-yl)acetamido)propyl)dodecane-1,12-diaminium 2,2,2-trifluoroacetate], the MIC in series [1] is 6.16 µM; in series [2], ≤ 0.25 µM; in [3], 197 µM; in [4] it was 12.3 µM; in series [5], > 32 µM; in series [6] it was 7.88 µM. The MIC in [7] and in series [8] was ≤ 0.25 µM in each case. Besides, in [9], the IC50 was 4.75 µM. Further, in series [10], the “Hemolysis … at 10% hemolytic activity (HC10)” value is ≤0.25 µM. The “Dox/P. a fold change (ratio between intrinsic MIC of the test compound and combination MIC)” value in series [11] is recorded as 2 fold. Further, the “Dox/P. a: concentration required” value in [11] is reported as 98.5 µM. For the same compound, the “Eryth/E. c: concentration required” value in [12] was 24.6 µM.
With `O=C(Cc1c[nH]c2ccc(Br)cc12)NCCCNCCCCCCNCCCNC(=O)Cc1c[nH]c2ccc(Br)cc12.O=C(O)C(F)(F)F.O=C(O)C(F)(F)F` [Compound 15b, N^1,N^6-Bis(3-(2-(5-bromo-1H-indol-3-yl)acetamido)propyl)hexane-1,6-diaminium 2,2,2-trifluoroacetate], the MIC in series [1] was 13.4 µM; in [2] it was < 0.2 µM; in [3], 215 µM; in [4], 26.9 µM; in [5] it was > 34 µM; in [6], > 34 µM. Moreover, the MIC is 2.15 µM in [7] and < 0.2 µM in series [8]. Besides, the IC50 in [9] was > 34 µM. Also, the “Hemolysis … at 10% hemolytic activity (HC10)” value in [10] was >34 µM. Besides, in series [11], the “Dox/P. a fold change (ratio between intrinsic MIC of the test compound and combination MIC)” value is on record as 8 fold. Moreover, the “Dox/P. a: concentration required” value in series [11] is listed as 26.9 µM. Moreover, the “Eryth/E. c: concentration required” value in [12] came out at 53.7 µM.
For the compound `COc1ccc2[nH]cc(CC(=O)NCCCNCCCCCCNCCCNC(=O)Cc3c[nH]c4ccc(OC)cc34)c2c1.O=C(O)C(F)(F)F.O=C(O)C(F)(F)F` [Compound 16b, N^1,N^6-Bis(3-(2-(5-methoxy-1H-indol-3-yl)acetamido)propyl)hexane-1,6-diaminium 2,2,2-trifluoroacetate], the MIC was 50 µM in series [1]; 38 µM in series [2]; > 200 µM in series [3]; 100 µM in [4]; > 38 µM in series [5]; > 38 µM in series [6]. The MIC is > 38 µM in [7] and ≤ 0.3 µM in [8]. The IC50 in [9] is > 38 µM. Also, in series [10], the “Hemolysis … at 10% hemolytic activity (HC10)” value is >38 µM. For the same compound, in [11], the “Dox/P. a fold change (ratio between intrinsic MIC of the test compound and combination MIC)” value is recorded as > 8 fold. For the same compound, in series [11], the “Dox/P. a: concentration required” value amounted to 25 µM. Further, in series [12], the “Eryth/E. c: concentration required” value is 50 µM.
With `O=C(Cc1c[nH]c2ccc(Br)cc12)NCCCNCCCCCCCCNCCCNC(=O)Cc1c[nH]c2ccc(Br)cc12.O=C(O)C(F)(F)F.O=C(O)C(F)(F)F` [Compound 15d, N^1,N^8-Bis(3-(2-(5-bromo-1H-indol-3-yl)acetamido)propyl)octane-1,8-diaminium 2,2,2-trifluoroacetate], the MIC is 13 µM in series [1]; ≤ 0.26 µM in series [2]; > 209 µM in series [3]; 26.1 µM in series [4]; > 33 µM in series [5]; > 33 µM in series [6]. In addition, the MIC in series [7] is 2.09 µM; in series [8] it was ≤ 0.26 µM. Besides, the IC50 in [9] was > 33 µM. For the same compound, the “Hemolysis … at 10% hemolytic activity (HC10)” value in series [10] is 10.1 µM. The “Dox/P. a fold change (ratio between intrinsic MIC of the test compound and combination MIC)” value in series [11] was > 4 fold. Besides, the “Dox/P. a: concentration required” value in series [11] is 52.2 µM. Moreover, the “Eryth/E. c: concentration required” value in series [12] was determined as 52.2 µM.
Consider `Cc1ccc2[nH]cc(CC(=O)NCCCNCCCCNCCCNC(=O)Cc3c[nH]c4ccc(C)cc34)c2c1.O=C(O)C(F)(F)F.O=C(O)C(F)(F)F` [Compound 17a, N^1,N^4-Bis(3-(2-(5-methyl-1H-indol-3-yl)acetamido)propyl)butane-1,4-diaminium 2,2,2-trifluoroacetate], for which the MIC in series [1] is 129 µM; in series [2], ≤ 0.32 µM; in series [3], > 259 µM; in [4], > 259 µM; in series [5], > 41 µM; in series [6], > 41 µM. Also, the MIC was 20.7 µM in [7] and ≤ 0.32 µM in series [8]. Also, the IC50 in series [9] is > 41 µM. The “Hemolysis … at 10% hemolytic activity (HC10)” value in series [10] is 8.46 µM. Moreover, the “Dox/P. a fold change (ratio between intrinsic MIC of the test compound and combination MIC)” value in [11] is listed as > 2 fold. In series [11], the “Dox/P. a: concentration required” value was 129 µM. For the same compound, the “Eryth/E. c: concentration required” value in series [12] is given as 64.7 µM.
